Consider 50 compounds from patent publication US8642774B2, “Compounds” (Boehringer Ingelheim International GmbH, priority 2011, dated 2014).

Broadly, the EC50 is the midpoint of the concentration-response curve.

The target in the assay is T1, human recombinant mGluR5 (Homo sapiens, UniProt P41594).
T1 construct: expressed in transfected cells; host or cells: HEK 293 cell line, cultured with tetracycline, hygromycin and geneticin; tetracycline is withdrawn 3-7 days before the assay
The assay can be described thus: positive modulation of mGluR5, calcium based FLIPR assay. The assay is classed as cell-based. The conditions noted are these: EC50 of the modulation; HEK 293 cell line expressing human recombinant mGluR5; peak height of Ca fluorescence signal after glutamate at approx. 5% basal stimulation; read-out: EC50. How it is done: The positive modulation of mGluR5 is measured in a HEK 293 cell line expressing human recombinant mGluR5 and is detected with calcium based FLIPR assay. The cells are cultured with DMEM supplemented with 10% FCS, 2 μg/mL tetracycline, 100 μg/mL hygromycin and 500 μg/mL gneticin. The cell culture media is exchanged for tetracycline-free cell culture media 3-7 days before the assay. One day before the assay the cell culture medium is exchanged to DMEM without glutamine and phenol red and supplemented with 10% FCS, 100 μg/mL hygromycin and 500 μg/mL geneticin. On the assay day, the medium of the subconfluent cultures is removed and the cells are detached by addition of 2.5 ml EDTA (0.02%) per 175 cm2 culture flask for 1 minute. The cells are resuspend in Ringer solution (140 mM NaCl, 5 mM KCl, 2.5 mM CaCl2, 1.5 mM MgCl2, 5 mM Glucose, 10 mM Hepes; adjusted to pH 7.4 with NaOH), pooled and Ringer solution added to adjust the volume to 50 mL. The cell suspension is centrifuged for 5 min at 1500 U/min (425 g). The supernatant is removed and the cells washed a second time with 50 ml fresh Ringer solution and centrifuged again as before. The supernatant is again removed and the pellet resuspended in Ringer solution to 1,000,000 cells/ml (1×10^6 cells/mL). The cells are plated onto BD BioCoat Poly-D-Lysine 384 well plates (20.000 cells/well; 20 μl/well). The lid covered plates are then incubated until use at 37° C./10% CO2. For dye loading, 20 μl of Calcium-4 assay kit solution (prepared according to the manufacturer's description in Ringer solution) are added to the cells and the plates are incubated for 80 min 37° C. and then 10 min at room temperature. • Controls, Compound dilution and assay execution: • Each assay plate contained wells with “high” and “low” controls:
Low controls 1% DMSO/ringer solution+basal glutamate activation (defined as 100% CTL).
High controls 10 μM CDPPB+basal glutamate activation (defined as 200% CTL).
Test compounds are dissolved and diluted in DMSO to 100-fold the desired concentrations. In a second step, the compounds are diluted in Ringer solution such that the compounds are 4-fold more concentrated than the desired final assay concentration. The final DMSO concentration was 1%.
20 μl of each compound solution are then transferred to the assay plate and the Ca2+ kinetic is measured to determine any intrinsic compound activity. After 5 min incubation in the FLIPR device, the second stimulation with 20 μl of glutamate in Ringer solution (glutamate concentration adjusted to approximately 5% basal stimulation of the maximal possible glutamate effect) is added and the kinetic Ca2+ response of the wells was measured for the modulation effect.
The peak height of the Ca release related fluorescence signal (9-66) is used for the EC50. The EC50 of the modulation is calculated over a nonlinear regression with GraphPad Prism (Table 1).

T1 sequence (P41594 21-1212): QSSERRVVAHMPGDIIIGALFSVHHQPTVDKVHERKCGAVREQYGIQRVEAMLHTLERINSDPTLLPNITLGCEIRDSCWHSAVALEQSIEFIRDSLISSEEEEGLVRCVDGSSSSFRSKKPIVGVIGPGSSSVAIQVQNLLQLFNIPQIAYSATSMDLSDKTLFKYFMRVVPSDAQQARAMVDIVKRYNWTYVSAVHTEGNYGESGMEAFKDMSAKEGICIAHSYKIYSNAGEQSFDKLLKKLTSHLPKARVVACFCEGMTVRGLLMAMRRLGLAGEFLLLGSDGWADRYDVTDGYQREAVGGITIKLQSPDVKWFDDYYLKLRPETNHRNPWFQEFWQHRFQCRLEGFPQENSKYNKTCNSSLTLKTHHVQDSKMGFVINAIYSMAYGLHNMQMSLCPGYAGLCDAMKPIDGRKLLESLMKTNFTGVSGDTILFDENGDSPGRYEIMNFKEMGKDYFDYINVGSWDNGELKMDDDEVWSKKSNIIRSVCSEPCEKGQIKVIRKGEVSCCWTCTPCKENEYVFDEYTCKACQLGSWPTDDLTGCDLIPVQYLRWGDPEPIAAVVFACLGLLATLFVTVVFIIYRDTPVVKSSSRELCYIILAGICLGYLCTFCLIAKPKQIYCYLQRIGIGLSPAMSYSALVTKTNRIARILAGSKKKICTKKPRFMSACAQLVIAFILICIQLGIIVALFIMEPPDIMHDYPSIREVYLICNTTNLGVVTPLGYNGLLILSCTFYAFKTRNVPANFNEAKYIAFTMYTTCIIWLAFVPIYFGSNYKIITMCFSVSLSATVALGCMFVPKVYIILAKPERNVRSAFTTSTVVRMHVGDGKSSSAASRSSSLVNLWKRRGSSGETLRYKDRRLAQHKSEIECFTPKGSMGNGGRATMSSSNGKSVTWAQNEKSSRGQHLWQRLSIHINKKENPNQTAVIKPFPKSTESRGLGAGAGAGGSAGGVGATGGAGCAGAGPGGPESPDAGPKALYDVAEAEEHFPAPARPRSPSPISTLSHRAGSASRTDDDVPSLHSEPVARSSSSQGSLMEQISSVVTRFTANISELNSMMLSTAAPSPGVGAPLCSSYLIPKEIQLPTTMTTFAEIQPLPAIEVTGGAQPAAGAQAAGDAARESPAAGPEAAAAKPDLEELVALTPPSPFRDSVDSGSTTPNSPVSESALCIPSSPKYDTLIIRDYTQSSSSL

For `Cc1nc2c(s1)CN(C(=O)Cn1nc(-c3ccc(F)c(C)c3)nc1-c1ccccc1)CC2` [Example 7.02.84.], the 50% effective concentration (EC50) is 115 nM.
Regarding `O=C(Cn1nc(-c2ccc(F)cc2)nc1-c1ccc(F)cc1)N1CCN(Cc2ccccc2)C(=O)C1` [Example 7.03.007.], the concentration for a half-maximal effect (EC50) came to 1380 nM.
For `COc1ccc2c(n1)CCN(C(=O)Cn1nc(-c3ccc(F)cc3)nc1-c1ccc(F)cc1)CC2` [Example 7.03.023.], the concentration for a half-maximal effect (EC50) was 186 nM.
The figure for `CCc1nc(-c2ccc(F)c(C)c2)nn1CC(=O)N1CCc2nc(N)sc2CC1` [Example 7.03.082.] is 1890 nM.
For `COc1cccc(C2=CCN(C(=O)Cn3nc(-c4ccc(F)cc4)nc3-c3ccc(F)cc3)CC2)c1` [Example 7.03.021.] the value was 228 nM; for `O=C(Cn1nc(-c2ccc(F)cc2)nc1-c1ccc(F)cc1)N1CCC(Oc2ccccc2)CC1` [Example 7.03.005.], 958 nM; for `Cc1nc2c(s1)CN(C(=O)Cn1nc(-c3ccc(F)c(C)c3)nc1C1CCCCC1)C2` [Example 7.03.060.], 255 nM.
Turning to `O=C(Cn1nc(-c2ccc(F)cc2)nc1-c1ccc(F)cc1)N1CCN(c2ccccn2)C(=O)C1` [Example 7.01.01., 4-(2-(3,5-bis-(4-Fluoro-phenyl)-(1,2,4)triazol-1-yl)-acetyl)-1-pyridin-2-yl-piperazin-2-one], the EC50 is 212 nM.
For the compound `Cc1cc(-c2nc(-c3ccccc3)n(CC(=O)N3CCc4cn[nH]c4CC3)n2)ccc1F` [Example 7.02.89.], the EC50 was found to be 194 nM.
`COc1ccc2c(c1)CCN(C(=O)Cn1nc(-c3ccc(F)cc3)nc1-c1ccc(F)cc1)CC2` [Example 7.02.39.]: the EC50 amounted to 279 nM.
In the case of `Cc1nc2c(s1)CCN(C(=O)Cn1nc(-c3ccc(F)cn3)nc1-c1ccc(F)cc1)CC2` [Example 7.03.116.], the EC50 amounted to 392 nM.
Turning to `COc1ccc(-c2nc(-c3ccccc3)n(CC(=O)N3CCN(c4ccccn4)C(=O)C3)n2)cc1` [Example 7.03.053.], the EC50 came out at 242 nM.
The figure for `Cc1nc2c(o1)CN(C(=O)Cn1nc(-c3ccc(F)c(C)c3)nc1-c1ccccc1)CC2` [Example 7.03.064.] is 86 nM; for `O=C(Cn1nc(-c2ccc(F)cc2)nc1-c1ccc(F)cc1)N1CCC(c2ncno2)CC1` [Example 7.02.57.] it is 1450 nM; for `COc1cccc(N2CCN(C(=O)Cn3nc(-c4ccc(F)cc4)nc3-c3ccc(F)cc3)CC2=O)c1` [Example 7.01.03.] it is 283 nM.
The figure for `Nc1nc2c(s1)CCN(C(=O)Cn1nc(-c3ccc(F)cc3)nc1-c1ccc(F)cc1)CC2` [Example 7.03.001., 1-(2-Amino-4,5,7,8-tetrahydro-thiazolo[4,5-d]azepin-6-yl)-2-(3,5-bis-(4-fluoro-phenyl)-(1,2,4)triazol-1-yl)-ethanone] is 164 nM; for `O=C(Cn1nc(-c2ccc(F)cc2)nc1-c1ccc(F)cc1)N1CCN(c2ncnc3c2SCC3)CC1` [Example 7.02.76.] it is 242 nM.
As for `Cc1nc2c(s1)CCN(C(=O)Cn1nc(-c3ccc(F)c(C)c3)nc1C1CCCCC1)CC2` [Example 7.03.062.], the EC50 amounted to 155 nM.
The figure for `COc1ccc2c(c1)CCN(C(=O)Cn1nc(-c3ccc(F)c(C)c3)nc1-c1ccccc1)CC2` [Example 7.02.91.] is 107 nM; for `Cc1cc(-c2nc(C3CCCC(C)C3)n(CC(=O)N3CCc4nc(N)sc4CC3)n2)ccc1F` (centres unmarked) [Example 7.03.095.] it is 610 nM; for `Cc1nc2c(s1)CCN(C(=O)Cn1nc(-c3ccc(F)c(C)c3)nc1-c1ccc(F)c(C)c1)CC2` [Example 7.03.084.] it is 52 nM.
As to `CC1CN(c2ccccn2)CCN1C(=O)Cn1nc(-c2ccc(F)cc2)nc1-c1ccc(F)cc1` (centres unmarked) [Example 7.03.014.], the half-maximal effective concentration (EC50) is 626 nM.
As to `Cc1nc2c(s1)CN(C(=O)Cn1nc(-c3ccc(F)c(C)c3)nc1-c1ccccc1)C2` [Example 7.03.066.], the EC50 is 71 nM.
For `O=C(Cn1nc(-c2ccc(F)cc2)nc1-c1ccc(F)cc1)N1CCN(c2ccccc2)C(=O)C1` [Example 7.03.010.] the value was 734 nM.
Take `COc1ccc2c(n1)CCN(C(=O)Cn1nc(-c3ccc(F)c(C)c3)nc1-c1ccccc1)CC2` [Example 7.02.83.]: the EC50 worked out at 105 nM.
For the compound `CCC(C)c1nc(-c2ccc(F)c(C)c2)nn1CC(=O)N1CCc2nc(N)sc2CC1` (centres unmarked) [Example 7.03.085.], the EC50 came out at 644 nM.
Regarding `N#Cc1ccc2c(c1)CCN(C(=O)Cn1nc(-c3ccc(F)cc3)nc1-c1ccc(F)cc1)C2` [Example 7.02.48.], the EC50 is 972 nM.
As to `CCCc1nc(-c2ccc(OC(F)F)cc2)nn1CC(=O)N1CCN(c2noc(C)n2)CC1` [Example 7.03.130], the EC50 worked out at 481 nM.
Turning to `CCCCCc1nc(-c2ccc(F)c(C)c2)nn1CC(=O)N1Cc2nc(C)oc2C1` [Example 7.03.125], the EC50 was 152 nM.
The figure for `Cc1cc(-c2nc(C(C)C)n(CC(=O)N3CCc4nc(N)sc4CC3)n2)ccc1F` [Example 7.03.073.] is 1170 nM; for `O=C(Cn1nc(-c2ccc(F)cc2)nc1-c1ccc(F)cc1)N1CCC(c2ncc(-c3ccccc3)s2)CC1` [Example 7.02.19.] it is 1990 nM.
Consider `COc1cc(C2=CCN(C(=O)Cn3nc(-c4ccc(F)cc4)nc3-c3ccc(F)cc3)CC2)ncn1` [Example 7.03.025.], for which the EC50 is 97 nM.
For `O=C(Cn1nc(-c2ccc(F)cc2)nc1-c1ccc(F)cc1)N1CC=C(c2ncccn2)CC1` [Example 7.03.022.] the value was 56 nM; for `Cc1nc2c(s1)CN(C(=O)Cn1nc(-c3ccc(F)c(C)c3)nc1CCC(C)C)C2` [Example 7.03.113.], 340 nM; for `O=C(Cn1nc(-c2ccc(F)cc2)nc1-c1ccc(F)cc1)N1CCC(Oc2ccccn2)CC1` [Example 7.03.009.], 808 nM.
The figure for `COc1cccc(N2CCN(C(=O)Cn3nc(-c4ccc(F)c(C)c4)nc3C3CCCC3)CC2=O)c1` [Example 7.03.104.] is 679 nM; for `COc1ccc(-c2nc(-c3ccccc3)n(CC(=O)N3CCc4nc(N)sc4CC3)n2)cc1` [Example 7.03.051.] it is 282 nM; for `COc1ccc(-c2nc(-c3ccc(OC)cc3)n(CC(=O)N3Cc4nc(C)oc4C3)n2)cc1` [Example 7.03.133] it is 104 nM.
On to `CCCc1nc(-c2ccc(F)c(C)c2)nn1CC(=O)N1CCc2nc(N)sc2CC1` [Example 7.03.072.], for which the EC50 is 407 nM.
Take `CCc1nnc(N2CCN(C(=O)Cn3nc(-c4ccc(F)cc4)nc3-c3ccc(F)cc3)CC2)o1` [Example 7.03.044.]: the half-maximal effective concentration (EC50) was found to be 96 nM.
As for `O=C(Cn1nc(-c2ccc(F)cc2)nc1-c1ccc(F)cc1)N1CCN(c2cccc(F)c2)C(=O)C1` [Example 7.02.13.], the EC50 was found to be 544 nM.
With `Cc1nc2c(s1)CCN(C(=O)Cn1nc(-c3ccc(F)c(C)c3)nc1C)CC2` [Example 7.03.087.], the concentration giving a half-maximal response (EC50) was 647 nM.
For `CC(C)c1ncc2c(n1)CCN(C(=O)Cn1nc(-c3ccc(F)cc3)nc1-c1ccc(F)cc1)C2` [Example 7.02.70.], the concentration for a half-maximal effect (EC50) is 376 nM.
For `CCc1nc2c(s1)CCN(C(=O)Cn1nc(-c3ccc(F)cc3)nc1-c1ccc(F)cc1)CC2` [Example 7.03.030.], the concentration for a half-maximal effect (EC50) is 37 nM.
As for `Cc1cc(-c2nc(-c3ccccc3)n(CC(=O)N3CCc4cc(-c5ccccc5)nnc4CC3)n2)ccc1F` [Example 7.02.82.], the EC50 was 149 nM.
`COc1ccc(-c2nc(-c3ccccc3)n(CC(=O)N3CCc4nc(C)sc4CC3)n2)cc1` [Example 7.03.054.]: the EC50 amounted to 97 nM.
As for `Cc1cc(-c2nc(-c3ccc(F)c(C)c3)n(CC(=O)N3CCc4nc(N)sc4CC3)n2)ccc1F` [Example 7.03.083.], the EC50 is 64 nM.
Consider `Cc1cc(-c2nc(C(C)C)n(CC(=O)N3CC=C(c4ncccn4)CC3)n2)ccc1F` [Example 7.03.076.], for which the EC50 was 1710 nM.
On to `COc1ccc(-c2nc(-c3ccccc3)n(CC(=O)N3Cc4nc(C)sc4C3)n2)cc1` [Example 7.03.050.], for which the EC50 worked out at 338 nM.
Take `O=C(Cn1nc(-c2ccc(F)cc2)nc1-c1ccc(F)cc1)N1CC=C(c2ncco2)CC1` [Example 7.03.040.]: the EC50 came out at 54 nM.
